Assay results published in ChEMBL document CHEMBL1137981, “Identification and specificity studies of small-molecule ligands for SH3 protein domains” (J Med Chem, 2004).

Legend:
[1] = target: T1, Tyrosine-protein kinase TEC (Mus musculus, UniProt Q8CFK4); assay: Displacement of PRP-1 peptide from mouse Tec kinase SH3 domain by fluorescence polarization; No competition
T1 sequence (Q8CFK4 whole entry): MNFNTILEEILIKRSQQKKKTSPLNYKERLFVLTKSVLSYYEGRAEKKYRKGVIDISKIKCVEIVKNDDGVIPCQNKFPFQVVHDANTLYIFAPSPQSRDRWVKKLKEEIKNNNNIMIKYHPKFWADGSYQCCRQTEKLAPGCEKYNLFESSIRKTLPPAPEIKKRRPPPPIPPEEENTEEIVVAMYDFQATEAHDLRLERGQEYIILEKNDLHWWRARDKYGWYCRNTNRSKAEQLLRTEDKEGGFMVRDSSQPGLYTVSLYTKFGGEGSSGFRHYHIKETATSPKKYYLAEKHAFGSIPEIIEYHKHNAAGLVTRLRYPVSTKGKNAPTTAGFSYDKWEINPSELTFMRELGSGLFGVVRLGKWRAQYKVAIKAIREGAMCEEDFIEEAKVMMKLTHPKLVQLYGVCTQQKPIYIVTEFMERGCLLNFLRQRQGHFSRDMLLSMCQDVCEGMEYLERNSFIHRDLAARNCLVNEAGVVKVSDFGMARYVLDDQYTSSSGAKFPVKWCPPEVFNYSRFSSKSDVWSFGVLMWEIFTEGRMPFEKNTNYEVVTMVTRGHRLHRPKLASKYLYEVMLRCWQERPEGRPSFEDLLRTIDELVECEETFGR

[2] = target: T1, Tyrosine-protein kinase TEC; assay: Displacement of PRP-1 peptide from mouse Tec kinase SH3 domain by fluorescence polarization
[3] = target: T1, Tyrosine-protein kinase TEC; assay: Binding affinity to mouse Tec kinase SH3 domain by NMR chemical shift perturbation
[4] = target: T1, Tyrosine-protein kinase TEC; assay: Binding affinity to mouse Tec kinase SH3 domain by NMR chemical shift perturbation; No binding
[5] = Ionization constant (pKa) for the compound; format: physicochemical
[6] = target: SH2/SH3 adapter protein NCK1 (Homo sapiens, UniProt P16333); assay: Displacement of PRP-1 peptide from human Nck […] SH3 domain by fluorescence polarization
[7] = target: T1, Tyrosine-protein kinase TEC; assay: Binding affinity to mouse Tec kinase SH3 domain by NMR chemical shift perturbation; No binding; remark: listed apart in the source

SMILES | EC50 [2] [µM] | Kd [3] [µM] | other results
Nc1ccc2cccc(O)c2n1 |  |  | EC50 [1]: Not Active
Nc1ccc2cc(F)ccc2n1 | 150 |  | 
CC1(C)COC(c2ccc3nc(N)ccc3c2)OC1 |  | 22 | 
O=c1ccc2ccccc2[nH]1 |  |  | Kd [4]: Not Active
Nc1ncc2ccccc2n1 |  |  | pKa [5]: 4.82
CC(=O)Nc1ccc2ccccc2n1 |  |  | Kd [4]: Not Active
Nc1ccc2cc(Br)ccc2n1 | 58 |  | 
Nc1ccc2cc(Cl)ccc2n1 | 76 |  | 
CNc1ccc2ccccc2n1 |  | 380 | 
Cc1ccc2nc(N)ccc2c1 | 75 | 61 | EC50 [6]: 90 µM
Nc1ccc2cc(C3OCCO3)ccc2n1 | 34 | 40 | EC50 [6]: 300 µM
Nc1ncccn1 |  |  | pKa [5]: 3.54; Kd [7]: Not Active
Nc1ccccn1 [2-AMINOPYRIDINE] |  | > 4000 | 
Nc1ccc2ccccc2c1 [NAPHTHYLAMINE] |  |  | Kd [4]: Not Active
c1ccc2ncccc2c1 [QUINOLINE] |  |  | Kd [4]: Not Active

Further lines, with some results ahead:

EC50 [2] [µM] | Kd [3] [µM] | SMILES | other results
63 |  | COc1ccc2nc(N)ccc2c1 | 
26 | 52 | Nc1ccc2cc(C3OCCCO3)ccc2n1 | EC50 [6]: > 500 µM
